target: T1, Akt1 (Homo sapiens, UniProt P31749); test: Akt1 kinase assay (33P phosphorylation of biotinylated peptide, Flash plates); type: biochemical; settings: assayed at a concentration of 1.1 mcg/mL
T1 construct: made in house; host or cells: Sf9 insect cells (baculovirus, pBlueBacHis2B)
From the text: The assay described below measures the phosphorylation of a biotinylated peptide by active recombinant Akt1 and other kinase isoforms. The biotinylated peptide contains a consensus sequence derived from Akt substrate Gsk3 (Glycogen synthase kinase 3). The ^33P-labeled peptide substrate was captured by streptavidin-coated Flash plates.
Active recombinant Akt1 was expressed in Sf9 insect cells and purified as described by Kumar et al., Biochim. Biophys. Acta. Jun. 15, 2001, 1526(3), 257-268. Biotinylated peptide of the sequence Bio-ahx-RPRAASF was purchased from Syn Pep (Dublin, Calif., USA).
Cloning and Expression of Human Akt1 Sf9 Cells
Human Akt1 cDNA was amplified from a marathon-ready human lung cDNA library (Clonetech) using nested oligo primers as described below. The first round of amplification was carried out using the following primers; Akt1F1 ([…]) and Akt1R1 (TCCATC […]) and for the second round amplification, the primers of the following sequence were used; Akt1F2 (GGATCCTCGG […]) and AKT1R2 (GGTACCATCGTC […]). The PCR product was subcloned into pCRScript plasmid as a BamHI/KpnI fragment and the sequence of the cDNA was confirmed by DNA sequencing. This plasmid was used as a template for reamplification of Akt1 using appropriate primers for subcloning into pBlueBaHis2B into BamH1/EcoRI sites to generate an in frame fusion to (His)6 tag and an anti-Xpress antibody epitope tag at the N-terminus. This construct was sequenced to verify the junction sequences and used for generating a recombinant baculovirus. Growth of the recombinant virus, amplification and determination of viral titer were carried out according to the instructions from the manufacturer (InVitrogen, CA).
Purification of Akt1 from Sf9 Cells
Viral stocks were used to infect large scale Sf9 cells at a multiplicity of infection (MOI) of 2.5. Cells were maintained at 27° C. for 60 h and okadaic acid was added to the cultures to a concentration of 50 nM. Cells were harvested 4 h hours later by centrifugation at 1200 rpm for 30 min followed by freezing at −80° C. until further use. All purification steps were carried out at 4° C. Whole cell pellets were suspended in buffer A (20 mM sodium phosphate buffer pH 7.8, 500 mM NaCl, 1 mM sodium vanadate, 5 mM sodium fluoride, 40 mM β-glycerophosphate, 10 mM imidazole and protease inhibitor cocktail) and lysed using a microfluidizer. The cell extract was centrifuged at 16,000×g for 10 min to remove the debris and directly loaded onto Ni-NTA Superflow resin using a FPLC pump operated at 1 ml/min. The column was washed once with buffer A, once with wash buffer B (20 mM sodium phosphate pH 6.0, 1 mM sodium vanadate, 5 mM sodium fluoride and protease cocktail) and once with wash buffer B containing 0.05% Tween-20 followed by washing with buffer A until OD260 returned to basal level. Proteins were eluted with buffer A containing 200 mM imidazole. Fractions were analyzed by electrophoresis on 10% denaturing polyacrylamide gels and fractions containing 85% pure protein band at 60 KDa were pooled and dialyzed against buffer C (20 mM Tris-HCl pH 7.5, 0.5 mM EDTA,-2 mM DTT, 145 mM NaCl, 0.1 mM sodium vanadate, 5 mM sodium fluoride, 10 mM, β-glycerophosphate and 20% glycerol). Purified protein was stored as aliquots at −80° C. Protein concentrations were determined using BCA protein assay reagent A (Catalog #23228). To examine the identity of the proteins, 2 μg of purified protein was electrophoresed on SDS-polyacrylamide gels and stained with coomassie blue dye or transferred to nitrocellulose membrane and probed with anti-Akt and anti-phospho-specific Akt antibodies using enhanced chemiluminescence (ECL) reagent according to the protocol described by the manufacturer (Amersham).
The kinase assay was performed in 96 well plates at room temperature. Assay solutions and plates were preincubated at room temperature for 5 min. […]

T1 sequence (P31749 whole entry): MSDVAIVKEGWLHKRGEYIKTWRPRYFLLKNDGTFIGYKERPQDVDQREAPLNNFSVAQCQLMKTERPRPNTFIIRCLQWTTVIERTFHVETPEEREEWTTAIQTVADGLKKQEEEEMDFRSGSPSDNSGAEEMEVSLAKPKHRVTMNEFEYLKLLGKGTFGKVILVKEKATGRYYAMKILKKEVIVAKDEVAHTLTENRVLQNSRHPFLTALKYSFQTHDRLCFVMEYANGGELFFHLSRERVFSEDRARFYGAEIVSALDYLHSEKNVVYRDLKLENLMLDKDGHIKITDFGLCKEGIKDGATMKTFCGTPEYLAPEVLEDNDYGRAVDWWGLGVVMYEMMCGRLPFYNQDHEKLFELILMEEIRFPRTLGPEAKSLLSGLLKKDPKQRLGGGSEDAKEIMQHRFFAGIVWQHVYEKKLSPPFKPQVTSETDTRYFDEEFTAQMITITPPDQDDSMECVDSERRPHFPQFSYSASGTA

Row | inhibition at 1.1 µg/mL [%] | SMILES
1 | > 90 | Cc1n[nH]c2ccc(-c3nnc(Cl)c(N4CCN[C@@H](C(C)C)C4)n3)cc12 [Compound 20, 6-chloro-5-[(S)-3-isopropylpiperazin-1-yl]-3-(3-methylindazol-5-yl)-[1,2,4]triazine]
2 | > 90 | Cc1n[nH]c2ccc(-c3nncc(N4CCN[C@@H](CC(C)C)C4)n3)cc12 [Compound 23, 5-[(S)-3-isobutylpiperazin-1-yl]-3-(3-methylindazol-5-yl)-[1,2,4]triazine]
3 | > 90 | Cc1n[nH]c2ccc(-c3nnc(Cl)c(N4CCN[C@@H](CC(C)C)C4)n3)cc12 [Compound 24, 6-chloro-5-[(S)-3-isobutylpiperazin-1-yl]-3-(3-methylindazol-5-yl)-[1,2,4]triazine]

same assay, conditions: read-out: IC50 (AKT1 inhibition)

Row | IC50 [nM] | SMILES
4 | 5.4 | Cc1n[nH]c2ccc(-c3nncc(N4CCN[C@@H](CC(C)C)C4)n3)cc12 [Compound 23, 5-[(S)-3-isobutylpiperazin-1-yl]-3-(3-methylindazol-5-yl)-[1,2,4]triazine]

same assay, conditions: read-out: IC50 rating (AKT1 inhibition)

Row | IC50 [nM] | SMILES
5 | > 1000 | Cc1n[nH]c2ccc(-c3nnc(NCc4ccccc4)c(N4CCN[C@@H](CC(C)C)C4)n3)cc12 [Compound 17, 6-benzylamino-5-[(S)-3-isobutylpiperazin-1-yl]-3-(3-methylindazol-5-yl)-[1,2,4]triazine]
6 | > 1000 | Cc1n[nH]c2ccc(-c3nnc(NCc4ccccc4)c(N4CCN[C@@H](Cc5ccccc5)C4)n3)cc12 [Compound 18, 6-Benzylamino-5-[(S)-3-benzylpiperazin-1-yl]-3-(3-methylindazol-5-yl)-[1,2,4]triazine]
7 | < 100 | Cc1n[nH]c2ccc(-c3nncc(N4CCN[C@@H](C(C)C)C4)n3)cc12 [Compound 19, 5-[(S)-3-isopropylpiperazin-1-yl]-3-(3-methylindazol-5-yl)-[1,2,4]triazine]
8 | < 100 | Cc1n[nH]c2ccc(-c3nnc(Cl)c(N4CCN[C@@H](C(C)C)C4)n3)cc12 [Compound 20, 6-chloro-5-[(S)-3-isopropylpiperazin-1-yl]-3-(3-methylindazol-5-yl)-[1,2,4]triazine]
9 | 100 to 1000 | Cc1n[nH]c2ccc(-c3nncc(N4CCN[C@@H](Cc5c[nH]c6ccccc56)C4)n3)cc12 [Compound 21, 5-[(S)-3-(3-indolylmethyl)piperazin-1-yl]-3-(3-methylindazol-5-yl)-[1,2,4]triazine]
10 | > 1000 | Cc1n[nH]c2ccc(-c3nnc(Cl)c(N4CCN[C@@H](Cc5c[nH]c6ccccc56)C4)n3)cc12 [Compound 22, 6-chloro-5-[(S)-3-(3-indolylmethyl)piperazin-1-yl]-3-(3-methylindazol-5-yl)-[1,2,4]triazine]
11 | < 100 | Cc1n[nH]c2ccc(-c3nncc(N4CCN[C@@H](CC(C)C)C4)n3)cc12 [Compound 23, 5-[(S)-3-isobutylpiperazin-1-yl]-3-(3-methylindazol-5-yl)-[1,2,4]triazine]
12 | < 100 | Cc1n[nH]c2ccc(-c3nnc(Cl)c(N4CCN[C@@H](CC(C)C)C4)n3)cc12 [Compound 24, 6-chloro-5-[(S)-3-isobutylpiperazin-1-yl]-3-(3-methylindazol-5-yl)-[1,2,4]triazine]
13 | > 1000 | Cc1n[nH]c2ccc(-c3nnc(Cl)c(N4CCN[C@@H](COCc5ccccc5)C4)n3)cc12 [Compound 25, 5-[(R)-3-(benzyloxymethyl)piperazin-1-yl]-6-chloro-3-(3-methylindazol-5-yl)-[1,2,4]triazine]
14 | > 1000 | Cc1n[nH]c2ccc(-c3nncc(N4CCN[C@@H](COCc5ccccc5)C4)n3)cc12 [Compound 26, 5-[(R)-3-(benzyloxymethyl)piperazin-1-yl]-3-(3-methylindazol-5-yl)-[1,2,4]triazine]
15 | > 1000 | Cc1n[nH]c2ccc(-c3nncc(N4CCN[C@@H](CO)C4)n3)cc12 [Compound 27]
16 | < 100 | Cc1n[nH]c2ccc(-c3nncc(N4CCN(C)[C@@H](Cc5ccccc5)C4)n3)cc12 [Compound 28, 5-[(S)-3-benzyl-4-methyl-piperazin-1-yl]-3-(3-methylindazol-5-yl)-[1,2,4]triazine]
17 | > 1000 | Cc1n[nH]c2ccc(-c3nncc(N4CCN5CCCC5C4)n3)cc12 (stereo not shown) [Compound 29, 5-(1,4-diazabicyclo[4.3.0]non-1-yl)-3-(3-methylindazol-5-yl)-[1,2,4]triazine]
18 | > 1000 | Cc1n[nH]c2ccc(-c3nncc(N4CCN5CCCCC5C4)n3)cc12 (stereo not shown) [Compound 30, 5-(1,4-diazabicyclo[4.4.0]dec-1-yl)-3-(3-methylindazol-5-yl)-[1,2,4]triazine]
19 | > 1000 | Cc1n[nH]c2ccc(-c3nnc(Cl)c(N4CCN5CCCC5C4)n3)cc12 (stereo not shown) [Compound 31, 6-chloro-5-(1,4-diazabicyclo[4.3.0]non-1-yl)-3-(3-methylindazol-5-yl)-[1,2,4]triazine]
20 | > 1000 | Cc1n[nH]c2ccc(-c3nnc(Cl)c(N4CCN5CCCCC5C4)n3)cc12 (stereo not shown) [Compound 32]
21 | 100 to 1000 | Cc1n[nH]c2ccc(-c3nncc(N4CCCC(N)C4)n3)cc12 (stereo not shown) [Compound 33, 5-(3-aminopiperidin-1-yl)-3-(3-methylindazol-5-yl)-[1,2,4]triazine]

Row | IC50 [nM] | SMILES
22 | 100 to 1000 | Cc1n[nH]c2ccc(-c3nnc(Cl)c(N4CCCC(N)C4)n3)cc12 (stereo not shown) [Compound 34, 5-(3-aminopiperidin-1-yl)-6-chloro-3-(3-methylindazol-5-yl)-[1,2,4]triazine]
23 | > 1000 | Cc1n[nH]c2ccc(-c3nncc(N4CCCC(CN)C4)n3)cc12 (stereo not shown) [Compound 35, 5-(3-aminmethylopiperidin-1-yl)-3-(3-methylindazol-5-yl)-[1,2,4]triazine]
24 | 100 to 1000 | Cc1n[nH]c2ccc(-c3nnc(Cl)c(N4CCCC(CN)C4)n3)cc12 (stereo not shown) [Compound 36, 5-(3-aminmethyiopiperidin-1-yl)-6-chloro-3-(3-methylindazol-5-yl)-[1,2,4]triazine]
25 | 100 to 1000 | Cc1n[nH]c2ccc(-c3nncc(N4CCC(N)C4)n3)cc12 (stereo not shown) [Compound 37, 5-(3-aminopyrrolidin-1-yl)-3-(3-methylindazol-5-yl)-[1,2,4]triazine]
26 | < 100 | Cc1n[nH]c2ccc(-c3nnc(Cl)c(N4CCC(N)C4)n3)cc12 (stereo not shown) [Compound 38, 5-(3-aminopyrrolidin-1-yl)-6-chloro-3-(3-methylindazol-5-yl)-[1,2,4]triazine]
27 | > 1000 | COC(=O)C1CN(c2cnnc(-c3ccc4[nH]nc(C)c4c3)n2)CCN1 (stereo not shown) [Compound 39]
28 | > 1000 | COC(=O)C1CN(c2nc(-c3ccc4[nH]nc(C)c4c3)nnc2Cl)CCN1 (stereo not shown) [Compound 40]
29 | 100 to 1000 | Cc1n[nH]c2ccc(-c3nncc(N4CCNC5(CCCC5)C4)n3)cc12 [Compound 41, 5-(6,9-diaza-spiro[4.5]dec-9-yl)-3-(3-methylindazol-5-yl)-[1,2,4]triazine]
30 | 100 to 1000 | Cc1n[nH]c2ccc(-c3nncc(N4CCN[C@H](c5ccccc5)C4)n3)cc12 [Compound 42, 3-(3-methylindazol-5-yl)-5-[(R)-3-phenylpiperazin-1-yl]-[1,2,4]triazine]
31 | 100 to 1000 | Cc1n[nH]c2ccc(-c3nnc(Cl)c(N4CCN[C@H](c5ccccc5)C4)n3)cc12 [Compound 43, 6-chloro-3-(3-methylindazol-5-yl)-5-[(R)-3-phenylpiperazin-1-yl]-[1,2,4]triazine]
32 | < 100 | Cc1n[nH]c2ccc(-c3nncc(N4CCNC5(CCCCC5)C4)n3)cc12 [Compound 44, 5-(1,4-diaza-spiro[5.5]undec-4-yl)-3-(3-methylindazol-5-yl)-[1,2,4]triazine]
33 | < 100 | Cc1n[nH]c2ccc(-c3nncc(N4CCNC(Cc5ccc(F)cc5)C4)n3)cc12 (stereo not shown) [Compound 45, 5-[3-(4-fluorobenzyl)piperazin-1-yl]-3-(3-methylindazol-5-yl)-[1,2,4]triazine]
34 | 100 to 1000 | Cc1n[nH]c2ccc(-c3nncc(N4CCNCC4)n3)cc12 [Compound 46, 3-(3-methylindazol-5-yl)-5-(piperazin-1-yl)-[1,2,4]triazine]
35 | < 100 | Cc1n[nH]c2ccc(-c3nncc(N4CCNC(Cc5cccc(F)c5)C4)n3)cc12 (stereo not shown) [Compound 47, 5-[3-(3-fluorobenzyl)piperazin-1-yl]-3-(3-methylindazol-5-yl)-[1,2,4]triazine]
36 | < 100 | Cc1n[nH]c2ccc(-c3nncc(N4CCNC(Cc5ccccc5F)C4)n3)cc12 (stereo not shown) [Compound 48, 5-[3-(2-fluorobenzyl)piperazin-1-yl]-3-(3-methylindazol-5-yl)-[1,2,4]triazine]
37 | > 1000 | c1ccc(CNc2nnc(-c3ccc4[nH]nc(-c5ccccc5)c4c3)nc2N2CCNCC2)cc1 [Compound 53, 6-Benzylamino-3-(3-phenylindazol-5-yl)-5-(piperazin-1-yl)-[1,2,4]triazine]

— US7528132B2, “Kinase inhibitors” (Schering Corporation, priority 2005, dated 2009)
